Results published in PubChem BioAssay (NCI).
Where “and” joins values, the source holds several entries; their conditions need not be identical. Equal values may be shown once.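 A five-concentration, 48-hour dose response in 96-well plates underlies each endpoint, interpolated linearly between surrounding concentrations. Here, GI50 denotes the concentration required for 50% inhibition of growth. TGI is the concentration that stops growth completely.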

How the values were obtained:
Assay in all cases: NCI-60 cell line screen, 48 h
CAKI-1 renal = test system: CAKI-1 renal
CCRF-CEM leukemia = test system: CCRF-CEM leukemia
EKVX NSCLC = test system: EKVX NSCLC
OVCAR-8 ovarian = test system: OVCAR-8 ovarian
SK-MEL-2 melanoma = test system: SK-MEL-2 melanoma
SK-MEL-5 melanoma = test system: SK-MEL-5 melanoma
U251 CNS = test system: U251 CNS

Row | SMILES | GI50 (CAKI-1 renal) | TGI (CAKI-1 renal) | GI50 (CCRF-CEM leukemia) | TGI (CCRF-CEM leukemia) | GI50 (EKVX NSCLC) | TGI (EKVX NSCLC) | GI50 (OVCAR-8 ovarian) | TGI (OVCAR-8 ovarian) | GI50 (SK-MEL-2 melanoma) | TGI (SK-MEL-2 melanoma) | GI50 (SK-MEL-5 melanoma) | TGI (SK-MEL-5 melanoma) | GI50 (U251 CNS) | TGI (U251 CNS)
1 | CO[C@H]1CC(c2ccc[nH]2)=N[C@]12O[C@@H](C)C[C@@H]1CCCCCCCc3ccc([nH]3)[C@H]12 | 1180 nM | 11.3 µM | 704 nM | > 30.4 µM | 0.975 µM | 7.3 µM | 1.17 µM | > 33.3 µM | 1030 nM | 4.21 µM | 527 nM | 1.17 µM | 1140 nM | 17.3 µM
2 | CCCNc1nc2ccccc2c2c1S(=O)(=O)c1ccc(Cl)cc1C2=O | 1460 nM | > 50 µM | 400 nM | 3.98 µM | 1.38 µM | > 50 µM | 1.58 µM | > 50 µM | 1920 nM | > 50 µM | 1510 nM | > 50 µM | 1600 nM | > 50 µM
3 | CNC(=O)OCC1C2=C(C(=O)C(C)=C(N)C2=O)N2CC3C(N3C)C12OC (centres undefined) | – | 32.7 µM | – | > 100 µM | – | > 100 µM | – | > 100 µM | – | 55.7 µM | – | 23.8 µM | – | 45.7 µM
4 | CCN(CC)CCOc1ccc(C(=O)/C=C\c2ccc(Cl)cc2Cl)cc1 | 10500 nM | 22.3 µM | 2570 nM | 9.09 µM | 12.6 µM | 25.1 µM | 13.4 µM | 28.1 µM | 15000 nM | 28.5 µM | 3140 nM | 12.3 µM | 7160 nM | 21.3 µM
5 | COc1cc(/C=C/C(=O)c2cccnc2Nc2ccc(F)cc2)cc(OC)c1OC | 3680 nM | 39.5 µM | 2450 nM | 9.87 µM | 3.94 µM | > 100 µM | 2.69 µM | 13.4 µM | 2520 nM | 5.26 µM | 2510 nM | 8.24 µM | 2780 nM | 11.5 µM
6 | O=S(=O)(NCCNc1nccc(-c2c(-c3ccc(F)cc3)nc3sccn23)n1)c1ccccc1 | 3240 nM | > 100 µM | 3500 nM | > 100 µM | – | – | 4.17 µM | > 100 µM | 7500 nM | 26.6 µM | 2450 nM | 13.7 µM | 6450 nM | 26.9 µM
7 | O=C(Nc1ccc(Cl)c(Cl)c1)OCCN1c2ccccc2Sc2ccccc21 | – | > 10 µM | – | > 10 µM | – | – | – | > 10 µM | – | – | – | > 10 µM | – | > 10 µM
8 | COc1cc2c3c(n(CCCN=[N+]=[N-])c(=O)c2cc1OC)-c1ccc(N(C)C)cc1C3=O | – | – | > 100000 nM | > 100 µM | > 100 µM | > 100 µM | > 100 µM | > 100 µM | > 100000 nM | > 100 µM | 87100 nM | > 100 µM | > 100000 nM | > 100 µM
9 | CC(C)COC(=O)c1ccc2[nH]c(O)c(C=Nc3ccc(S(N)(=O)=O)cc3)c2c1 | 2860 nM | 16.7 µM | 823 nM | 15.3 µM | 3.97 µM | 15.6 µM | 1.04 µM | 4.62 µM | 1730 nM | 4.19 µM | 1650 nM | 4.46 µM | 879 nM | 4.13 µM
10 | CCn1c2ccccc2c2cc(C(O)c3cccc4ncccc34)ccc21 (centres undefined) | 42.5 nM | > 100 µM | 48.4 nM | > 100 µM | 0.0864 µM | > 100 µM | 0.122 µM | > 69.4 µM | 54.3 nM | 39.4 µM | 46.5 nM | 1.57 µM | 41.1 nM | 3.56 µM
11 | CCN(CC)CCSCCCNc1c2ccc(Cl)cc2nc2ccc(OC)cc12 | 1230 nM | 3.45 µM | 1260 nM | 4.72 µM | 1.73 µM | 4.72 µM | 1 µM | 3.54 µM | 2060 nM | 3.87 µM | 1800 nM | 3.24 µM | 1700 nM | 3.32 µM
12 | O=C1CC(c2ccc(Cl)cc2)Oc2ccccc21 (centres undefined) | – | 77.3 µM | – | 37.4 µM | – | 54.8 µM | – | > 100 µM | – | 37.8 µM | – | 27.3 µM | – | > 100 µM
13 | COc1ccc(OC)c(Nc2nc(-c3c(C)nc4sccn34)cs2)c1 | – | – | > 100000 nM | > 100 µM | – | – | 7.22 µM | > 100 µM | > 100000 nM | > 100 µM | 34900 nM | > 100 µM | > 100000 nM | > 100 µM
14 | COc1ccc(C2=CC(c3ccc(OC)c(OC)c3)c3c(c4ccccc4oc3=O)O2)cc1OC (centres undefined) | 1670 nM | > 100 µM | 2360 nM | > 100 µM | 1.52 µM | > 100 µM | 4.9 µM | > 100 µM | 12200 nM | > 100 µM | 363 nM | > 25.4 µM | 3190 nM | > 100 µM
15 | OCCN1CCN(CC/C=C2\c3ccccc3Sc3ccc(Cl)cc32)CC1 | 2310 nM and 2600 nM | 10.4 µM and 8.18 µM | 1610 nM and 3290 nM | 4.58 µM and 11.9 µM | 5.78 µM and 6.11 µM | 23.7 µM and 21 µM | 7.95 µM and 7.2 µM | 28.3 µM and 19.8 µM | 2750 nM and 2260 nM | 5.98 µM and 4.9 µM | 1610 nM and 1670 nM | 3.01 µM and 3.04 µM | 2340 nM and 2460 nM | 5.96 µM and 6.4 µM
16 | c1ccc(CNc2nc(Nc3ccccc3)nc3ccccc23)cc1 | 2040 nM | 5.18 µM | 2130 nM | 6 µM | – | – | 1.99 µM | 5.09 µM | – | – | 1410 nM | 2.76 µM | 1520 nM | 2.91 µM
17 | COc1cc2c(c(OC3OC(CO)C(O)C(O)C3O)c1)C(=O)CC(c1ccc(O)cc1)O2 (centres undefined) | – | > 100 µM | – | – | – | > 100 µM | – | > 100 µM | – | > 100 µM | – | > 100 µM | – | > 100 µM
18 | COc1ccc2nc(NC(=O)c3cccnc3Nc3cc(OC)c(OC)c(OC)c3)sc2c1 | 16400 nM | 42.5 µM | 20100 nM | > 100 µM | 11.5 µM | 55.6 µM | 6.52 µM | 22.6 µM | – | – | 11300 nM | 47.7 µM | 7100 nM | 21.7 µM
19 | Cn1c(=O)c(Oc2ccc(F)cc2F)cc2cnc(NCCS(C)(=O)=O)nc21 | > 25000 nM | > 25 µM | > 25000 nM | > 25 µM | – | – | > 25 µM | > 25 µM | > 25000 nM | > 25 µM | > 25000 nM | > 25 µM | > 25000 nM | > 25 µM
